In patent US11008337B2, “Chiral diaryl macrocycles as modulators of protein kinases” (Turning Point Therapeutics, Inc., priority 2015, dated 2021):

Key:
Format in all cases: cell-based
CD74-ROS1 Ba/F3 = biological target: T1, CD74-ROS1 Ba/F3 (Homo sapiens, UniProt P08922); assay: Cell proliferation assay, CD74-ROS1 Ba/F3 stable cell line (CellTiter-Glo); settings: Ba/F3-CD74-ROS1 wild type cells, 72 hours compound incubation; read-out: Cell Proliferation IC50 CD74-ROS1 Ba/F3
T1 construct: fused on or other part: P04233 (HLA class II histocompatibility antigen gamma chain)
T1 sequence (P08922 whole entry, change not shown, the tested form may be a part): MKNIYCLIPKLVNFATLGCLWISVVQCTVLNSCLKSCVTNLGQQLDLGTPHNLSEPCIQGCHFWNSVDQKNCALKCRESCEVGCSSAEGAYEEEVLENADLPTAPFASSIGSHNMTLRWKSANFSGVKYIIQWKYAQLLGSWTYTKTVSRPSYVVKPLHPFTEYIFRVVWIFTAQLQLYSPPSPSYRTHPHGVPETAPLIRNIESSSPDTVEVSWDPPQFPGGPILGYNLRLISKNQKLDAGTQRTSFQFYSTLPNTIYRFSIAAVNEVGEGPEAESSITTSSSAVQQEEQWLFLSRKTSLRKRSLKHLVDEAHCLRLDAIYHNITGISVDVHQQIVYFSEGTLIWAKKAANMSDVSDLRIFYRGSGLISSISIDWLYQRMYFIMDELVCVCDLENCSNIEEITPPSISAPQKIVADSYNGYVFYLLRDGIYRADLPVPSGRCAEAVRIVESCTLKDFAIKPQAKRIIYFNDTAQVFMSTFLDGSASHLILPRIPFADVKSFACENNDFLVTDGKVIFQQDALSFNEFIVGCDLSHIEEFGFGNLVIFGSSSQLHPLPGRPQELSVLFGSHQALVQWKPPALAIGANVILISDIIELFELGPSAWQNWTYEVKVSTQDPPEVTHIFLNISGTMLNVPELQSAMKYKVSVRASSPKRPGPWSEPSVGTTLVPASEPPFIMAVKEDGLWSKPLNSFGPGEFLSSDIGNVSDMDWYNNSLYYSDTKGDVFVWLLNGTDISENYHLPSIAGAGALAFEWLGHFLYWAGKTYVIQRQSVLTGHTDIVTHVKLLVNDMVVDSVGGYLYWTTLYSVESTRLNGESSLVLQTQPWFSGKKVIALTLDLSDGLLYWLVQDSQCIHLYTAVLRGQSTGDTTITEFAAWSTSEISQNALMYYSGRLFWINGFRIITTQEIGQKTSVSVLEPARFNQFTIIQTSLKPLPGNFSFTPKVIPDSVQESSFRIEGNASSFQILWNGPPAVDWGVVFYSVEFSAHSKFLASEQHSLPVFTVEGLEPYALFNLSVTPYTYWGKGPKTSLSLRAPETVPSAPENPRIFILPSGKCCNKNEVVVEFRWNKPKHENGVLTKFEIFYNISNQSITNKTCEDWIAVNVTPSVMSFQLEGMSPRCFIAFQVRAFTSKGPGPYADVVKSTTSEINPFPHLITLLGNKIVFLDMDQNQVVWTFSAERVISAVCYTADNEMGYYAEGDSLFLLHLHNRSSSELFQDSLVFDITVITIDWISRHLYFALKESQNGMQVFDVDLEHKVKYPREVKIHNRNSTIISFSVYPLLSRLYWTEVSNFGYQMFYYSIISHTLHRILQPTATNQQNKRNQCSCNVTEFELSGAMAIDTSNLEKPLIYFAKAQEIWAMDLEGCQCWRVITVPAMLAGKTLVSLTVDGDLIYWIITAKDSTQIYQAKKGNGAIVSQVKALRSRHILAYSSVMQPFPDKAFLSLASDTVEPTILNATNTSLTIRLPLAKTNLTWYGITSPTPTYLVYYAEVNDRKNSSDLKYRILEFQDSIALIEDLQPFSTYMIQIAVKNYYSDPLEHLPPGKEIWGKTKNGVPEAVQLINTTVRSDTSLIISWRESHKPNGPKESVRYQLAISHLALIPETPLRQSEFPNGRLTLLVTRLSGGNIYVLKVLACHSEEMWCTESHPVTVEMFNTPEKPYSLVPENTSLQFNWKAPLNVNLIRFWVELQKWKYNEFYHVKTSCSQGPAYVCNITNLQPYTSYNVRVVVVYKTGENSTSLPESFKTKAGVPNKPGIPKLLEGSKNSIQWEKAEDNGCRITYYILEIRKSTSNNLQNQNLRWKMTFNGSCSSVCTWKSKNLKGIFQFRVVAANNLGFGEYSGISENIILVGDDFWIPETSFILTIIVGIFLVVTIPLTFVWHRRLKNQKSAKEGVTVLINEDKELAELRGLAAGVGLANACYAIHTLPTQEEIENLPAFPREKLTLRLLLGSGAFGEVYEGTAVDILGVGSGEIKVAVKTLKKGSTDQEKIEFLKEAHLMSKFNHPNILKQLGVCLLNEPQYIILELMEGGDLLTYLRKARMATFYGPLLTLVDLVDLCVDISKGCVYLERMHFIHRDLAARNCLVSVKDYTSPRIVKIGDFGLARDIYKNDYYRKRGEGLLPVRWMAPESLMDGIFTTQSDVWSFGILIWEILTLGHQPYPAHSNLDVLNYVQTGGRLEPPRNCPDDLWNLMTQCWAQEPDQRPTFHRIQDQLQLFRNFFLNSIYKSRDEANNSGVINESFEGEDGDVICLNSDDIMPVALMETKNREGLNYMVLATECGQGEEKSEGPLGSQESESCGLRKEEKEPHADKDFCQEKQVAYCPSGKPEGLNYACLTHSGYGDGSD
Excerpt: (§1) Creation of CD74-ROS1 and EML4-ALK Ba/F3 Stable Cell Lines and Cell Proliferation Assays.
(§2) The CD74-ROS1 wild-type gene and EML4-ALK wild-type gene (variant 1) were synthesized at GenScript and cloned into pCDH-CMV-MCS-EF1-Puro plasmid (System Biosciences, Inc). Ba/F3-CD74-ROS1 and Ba/F3-EML4-ALK wild type cell lines were generated by infecting Ba/F3 cells with lentivirus containing CD74-ROS1 wide-type and EML4-ALK wild type. Stable cell lines were selected by puromycin treatment, followed by IL-3 withdrawal. 3000 cells were seeded in 384 well white plate overnight before compound treatment. Cell proliferation was measured using CellTiter-Glo luciferase-based ATP detection assay (Promega) following the manufactures's protocol after 72 hours of various concentration of compound incubation. IC50 determinations were performed using GraphPad Prism software (GraphPad, Inc., San Diego, Calif.).

EML4-ALK Ba/F3 = biological target: T2, EML4-ALK Ba/F3 (Homo sapiens, UniProt Q9UM73); assay: Cell proliferation assay, EML4-ALK Ba/F3 stable cell line (CellTiter-Glo); settings: Ba/F3-EML4-ALK wild type (variant 1) cells, 72 hours compound incubation; read-out: Cell Proliferation IC50 EML4-ALK Ba/F3
T2 construct: fused on or other part: Q9HC35 (Echinoderm microtubule-associated protein-like 4)
T2 sequence (Q9UM73 whole entry, change not shown, the tested form may be a part): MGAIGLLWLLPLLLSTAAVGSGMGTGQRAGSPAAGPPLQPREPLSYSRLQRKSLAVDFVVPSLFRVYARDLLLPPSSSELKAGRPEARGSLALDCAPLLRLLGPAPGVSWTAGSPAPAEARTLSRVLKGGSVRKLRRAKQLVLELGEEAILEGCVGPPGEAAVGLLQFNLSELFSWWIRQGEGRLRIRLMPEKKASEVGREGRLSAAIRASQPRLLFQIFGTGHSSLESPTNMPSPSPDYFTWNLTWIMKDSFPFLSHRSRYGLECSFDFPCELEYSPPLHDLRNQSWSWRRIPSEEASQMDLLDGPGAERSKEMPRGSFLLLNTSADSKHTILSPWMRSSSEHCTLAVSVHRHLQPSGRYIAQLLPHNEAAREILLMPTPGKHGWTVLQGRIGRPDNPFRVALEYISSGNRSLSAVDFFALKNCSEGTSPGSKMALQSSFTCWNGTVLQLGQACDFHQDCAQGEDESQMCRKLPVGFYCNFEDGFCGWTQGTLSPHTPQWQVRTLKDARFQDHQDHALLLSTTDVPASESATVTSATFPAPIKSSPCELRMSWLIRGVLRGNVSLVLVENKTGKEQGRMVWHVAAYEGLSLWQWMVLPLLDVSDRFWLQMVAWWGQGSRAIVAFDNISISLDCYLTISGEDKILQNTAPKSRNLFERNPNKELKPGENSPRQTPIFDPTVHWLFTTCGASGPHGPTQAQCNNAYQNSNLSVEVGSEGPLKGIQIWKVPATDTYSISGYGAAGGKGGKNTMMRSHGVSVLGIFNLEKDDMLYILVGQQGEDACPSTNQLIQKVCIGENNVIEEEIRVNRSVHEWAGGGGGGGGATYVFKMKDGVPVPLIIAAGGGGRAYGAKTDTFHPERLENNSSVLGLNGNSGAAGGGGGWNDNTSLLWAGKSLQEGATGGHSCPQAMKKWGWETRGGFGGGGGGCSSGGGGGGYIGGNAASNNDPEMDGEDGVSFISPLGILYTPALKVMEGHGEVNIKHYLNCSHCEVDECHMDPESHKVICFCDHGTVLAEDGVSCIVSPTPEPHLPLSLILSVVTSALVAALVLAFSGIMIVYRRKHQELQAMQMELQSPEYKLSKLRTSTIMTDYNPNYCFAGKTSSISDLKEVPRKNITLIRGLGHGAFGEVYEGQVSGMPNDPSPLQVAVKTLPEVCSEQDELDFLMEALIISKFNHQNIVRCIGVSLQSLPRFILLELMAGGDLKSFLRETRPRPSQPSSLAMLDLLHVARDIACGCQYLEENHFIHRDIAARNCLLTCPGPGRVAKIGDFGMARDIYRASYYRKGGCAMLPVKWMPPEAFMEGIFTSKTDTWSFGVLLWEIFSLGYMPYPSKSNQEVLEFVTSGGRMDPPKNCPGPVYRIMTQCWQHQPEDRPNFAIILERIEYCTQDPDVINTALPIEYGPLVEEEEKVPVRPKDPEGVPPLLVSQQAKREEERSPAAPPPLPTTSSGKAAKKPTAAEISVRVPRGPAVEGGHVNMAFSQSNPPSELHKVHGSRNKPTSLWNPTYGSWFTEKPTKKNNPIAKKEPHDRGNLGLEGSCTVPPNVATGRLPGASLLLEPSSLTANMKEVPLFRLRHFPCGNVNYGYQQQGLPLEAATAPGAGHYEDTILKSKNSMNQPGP
Excerpt: as §1, §2

[1] = system: T cell lymphoma Karpas-299 cell line (harboring endogenous NPM-ALK fusion gene); assay: Cell proliferation assay, Karpas-299 cells (CellTiter-Glo); settings: Homo sapiens, 72 hours incubation
Experimental: (§3) Cell Proliferation Assays.
(§4) Colorectal cell lines KM 12 (harboring endogenous TPM3-TRKA fusion gene) cells were cultured in DMEM medium, supplemented with 10% fetal bovine serum and 100 U/mL of penicillin/streptomycin. 5000 cells were seeded in 384 well white plate for 24 hours before compounds treatment. Cell proliferation was measured using CellTiter-Glo luciferase-based ATP detection assay (Promega) following the manufactures's protocol after 72 hours incubation. IC50 determinations were performed using GraphPad Prism software (GraphPad, Inc., San Diego, Calif.). Alternatively, essential thrombocythemia cell line SET-2 cells (harboring endogenous JAK2 V618F point mutation) or T cell lymphoma Karpas-299 cell line (harboring endogenous NPM-ALK fusion gene) were cultured in RPMI medium, supplemented with 10% fetal bovine serum and 100 U/mL of penicillin/streptomycin. 5000 cells were seeded in 384 well white plate for 24 hours before compounds treatment. Cell proliferation was measured using CellTiter-Glo luciferase-based ATP detection assay (Promega) following the manufactures's protocol after 72 hours incubation. IC50 determinations were performed using GraphPad Prism software (GraphPad, Inc., San Diego, Calif.).

[2] = system: Colorectal cell lines KM 12 (harboring endogenous TPM3-TRKA fusion gene); assay: Cell proliferation assay, KM12 cells (CellTiter-Glo); settings: Homo sapiens, 72 hours incubation
Experimental: as §3
as §4, with “Alternatively, essential thrombocythemia cell line SET-2 cells (harboring endogenous JAK2 V618F point mutation) or T cell lymphoma Karpas-299 cell line (harboring endogenous NPM-ALK fusion gene) were cultured in RPMI medium, supplemented with 10% fetal bovine serum and 100 U/mL of penicillin/streptomycin.” left out

[3] = system: essential thrombocythemia cell line SET-2 cells (harboring endogenous JAK2 point mutation); assay: Cell proliferation assay, SET-2 cells (CellTiter-Glo); settings: Homo sapiens, 72 hours incubation, read-out: Cell Proliferation IC50 SET2
Experimental: as §3, §4

Row | SMILES | GI50 (CD74-ROS1 Ba/F3) | GI50 (EML4-ALK Ba/F3) | IC50 [1] | IC50 [2] | IC50 [3]
1 | C[C@H]1Nc2ccn3ncc(c3n2)C(=O)N[C@H](CF)COc2ccc(F)cc21 [Compound 11, (6S,13R)-11-fluoro-6-(fluoromethyl)-13-methyl-6,7,13,14-tetrahydro-1,15-ethenopyrazolo[4,3-f][1,4,8,10]benzoxatriazacyclotridecin-4(5H)-one] | 18.9 nM | 2430 nM | 590 nM | 2 nM | 187 nM
2 | O=C1NCCOc2ccc(F)cc2[C@@H](CCF)Nc2ccn3ncc1c3n2 [Compound 23, (13R)-11-fluoro-13-(2-fluoroethyl)-6,7,13,14-tetrahydro-1,15-ethenopyrazolo[4,3-f][1,4,8,10]benzoxatriazacyclotridecin-4(5H)-one] | 5.1 nM | 459 nM |  | 1.3 nM | 236 nM
3 | C[C@H]1Nc2ccn3ncc(c3n2)C(=O)N[C@H]2CCCC[C@@H]2Oc2ccc(F)cc21 [Compound 44, (4aS,10R,18aS)-8-fluoro-10-methyl-2,3,4,4a,10,11,18,18a-octahydro-12,14-ethenodibenzo[b,l]pyrazolo[4,3-f][1,4,8,10]oxatriazacyclotridecin-17(1H)-one] |  | 3000 nM |  | 56 nM | 1800 nM
4 | C[C@H]1Nc2ccn3ncc(c3n2)C(=O)N2CCC[C@@H](C2)Oc2ccc(F)cc21 [Compound 53, (9S,15R)-13-fluoro-15-methyl-6,7,8,9,15,16-hexahydro-4H-1,17-etheno-5,9-methanopyrazolo[4,3-h][1,6,10,12]benzoxatriazacyclopentadecin-4-one] |  | 3000 nM |  | 37.3 nM | 505 nM
5 | C[C@H]1Nc2ccn3ncc(c3n2)C(=O)N[C@H]2CNC[C@H]2Oc2ccc(F)cc21 [Compound 48, (3aR,9R,17aS)-7-fluoro-9-methyl-1,2,3,3a,9,10,17,17a-octahydro-16H-11,13-ethenopyrazolo[4,3-f]pyrrolo[3,4-b][1,4,8,10]benzoxatriazacyclotridecin-16-one] |  | 5000 nM |  | > 10000 nM | > 10000 nM
6 | C[C@H]1Nc2ccn3ncc(c3n2)C(=O)N[C@@H]2CCCC[C@H]2Oc2ccc(F)cc21 [Compound 45, (4aR,10R,18aR)-8-fluoro-10-methyl-2,3,4,4a,10,11,18,18a-octahydro-12,14-ethenodibenzo[b,l]pyrazolo[4,3-f][1,4,8,10]oxatriazacyclotridecin-17(1H)-one] |  | > 10000 nM |  | 0.4 nM | 206 nM
7 | C[C@H]1Nc2ccn3ncc(c3n2)C(=O)N[C@@H]2CCC[C@@H]2Oc2ccc(F)cc21 [Compound 42, (3aS,9R,17aR)-7-fluoro-9-methyl-1,2,3,3a,9,10,17,17a-octahydro-16H-11,13-ethenocyclopenta[b]pyrazolo[4,3-f][1,4,8,10]benzoxatriazacyclotridecin-16-one] |  | 80 nM |  | 0.2 nM | 30 nM
8 | C[C@H]1Nc2ccn3ncc(c3n2)C(=O)N2CCC[C@H](C2)Oc2ccc(F)cc21 [Compound 52, (9R,15R)-13-fluoro-15-methyl-6,7,8,9,15,16-hexahydro-4H-1,17-etheno-5,9-methanopyrazolo[4,3-h][1,6,10,12]benzoxatriazacyclopentadecin-4-one] |  | 1480 nM |  | 8.7 nM | 768 nM
9 | C[C@H]1Nc2ccn3ncc(c3n2)C(=O)N2CCC(CC2)Oc2ccc(F)cc21 [Compound 54] |  | > 10000 nM |  | 464 nM | > 10000 nM
10 | C[C@H]1Nc2ccn3ncc(c3n2)C(=O)N[C@@H]2CCCC[C@@H]2Oc2ccc(F)cc21 [Compound 47, (4aS,10R,18aR)-8-fluoro-10-methyl-2,3,4,4a,10,11,18,18a-octahydro-12,14-ethenodibenzo[b,l]pyrazolo[4,3-f][1,4,8,10]oxatriazacyclotridecin-17(1H)-one] |  | 504 nM |  | 6 nM | 127 nM

Continued, in another order:

Row | GI50 (CD74-ROS1 Ba/F3) | GI50 (EML4-ALK Ba/F3) | IC50 [1] | SMILES | IC50 [2] | IC50 [3]
11 | 0.2 nM | 0.2 nM | 73 nM | C[C@H]1Nc2ccn3ncc(c3n2)C(=O)NC[C@H](CF)Oc2ccc(F)cc21 [Compound 9, (7R,13R)-11-fluoro-7-(fluoromethyl)-13-methyl-6,7,13,14-tetrahydro-1,15-ethenopyrazolo[4,3-f][1,4,8,10]benzoxatriazacyclotridecin-4(5H)-one] | 0.4 nM | 93 nM
12 |  | 218 nM |  | C[C@H]1CNC(=O)c2cnn3ccc(nc23)N[C@H](C)c2cc(F)cnc2O1 [Compound 60, (7S,13R)-11-fluoro-7,13-dimethyl-6,7,13,14-tetrahydro-1,15-ethenopyrazolo[4,3-f]pyrido[3,2-l][1,4,8,10]oxatriazacyclotridecin-4(5H)-one] | 0.35 nM | 30.3 nM
13 |  | 2000 nM |  | C[C@@H]1Nc2ccn3ncc(c3n2)C(=O)NC[C@H](C)Oc2ncc(F)cc21 [Compound 59, (7S,13S)-11-fluoro-7,13-dimethyl-6,7,13,14-tetrahydro-1,15-ethenopyrazolo[4,3-f]pyrido[3,2-l][1,4,8,10]oxatriazacyclotridecin-4(5H)-one] | 5.5 nM | 402 nM
14 |  | 3000 nM |  | C[C@H]1CNC(=O)c2cnn3ccc(nc23)NC(C(=O)N(C)C)c2cc(F)ccc2O1 (stereo partly drawn) [Compound 62, (7S)-11-fluoro-N,N,7-trimethyl-4-oxo-4,5,6,7,13,14-hexahydro-1,15-ethenopyrazolo[4,3-f][1,4,8,10]benzoxatriazacyclotridecine-13-carboxamide] | 112 nM | 3570 nM
15 |  | 709 nM |  | C[C@H]1Nc2ccn3ncc(c3n2)C(=O)NC[C@@H](CN(C)C)Oc2ccc(F)cc21 [Compound 55, (7S,13R)-7-[(dimethylamino)methyl]-11-fluoro-13-methyl-6,7,13,14-tetrahydro-1,15-ethenopyrazolo[4,3-f][1,4,8,10]benzoxatriazacyclotridecin-4(5H)-one] | 23.5 nM | 300 nM
16 |  | 8000 nM |  | CNC(=O)C1Nc2ccn3ncc(c3n2)C(=O)NC[C@H](C)Oc2ccc(F)cc21 (stereo partly drawn) [Compound 61, (7S)-11-fluoro-N,7-dimethyl-4-oxo-4,5,6,7,13,14-hexahydro-1,15-ethenopyrazolo[4,3-f][1,4,8,10]benzoxatriazacyclotridecine-13-carboxamide] | 73.7 nM | 1070 nM
17 |  | 31 nM |  | CC[C@@H]1CNC(=O)c2cnn3ccc(nc23)N[C@H](C)c2cc(F)cnc2O1 [Compound 58, (7R,13R)-7-ethyl-11-fluoro-13-methyl-6,7,13,14-tetrahydro-1,15-ethenopyrazolo[4,3-f]pyrido[3,2-l][1,4,8,10]oxatriazacyclotridecin-4(5H)-one] | 0.2 nM | 174 nM
18 |  | 150 nM |  | C[C@H]1Nc2ccn3ncc(c3n2)C(=O)N[C@H]2CCC[C@H]2Oc2ccc(F)cc21 [Compound 41, (3aR,9R,17aS)-7-fluoro-9-methyl-1,2,3,3a,9,10,17,17a-octahydro-16H-11,13-ethenocyclopenta[b]pyrazolo[4,3-f][1,4,8,10]benzoxatriazacyclotridecin-16-one] | 3 nM | 78.5 nM
19 |  | 88.5 nM | 166 nM | COC[C@@H]1CNC(=O)c2cnn3ccc(nc23)N[C@H](C)c2cc(F)ccc2O1 [Compound 25, (7S,13R)-11-fluoro-7-(methoxymethyl)-13-methyl-6,7,13,14-tetrahydro-1,15-ethenopyrazolo[4,3-f][1,4,8,10]benzoxatriazacyclotridecin-4(5H)-one] | 6.1 nM | 134 nM
